Experimental data taken from publication PMC10570359, “Dietary supplementation of cystinotic mice by lysine inhibits the megalin pathway and decreases kidney cystine content” (Scientific Reports, 2023).

Legend:
[1] = target: T1, porcine megalin (Sus scrofa, UniProt C0HL13); assay: Surface plasmon resonance: competition for TC:B12 binding to chip-immobilized megalin; conditions: for IC50: IC50 for TC:B12/megalin interaction (mM; 95%CI), 10 µg/ml TC:B12 in 0 to 100 mM amino-acid, Biacore; for SPR signal of amino-acid alone on megalin chip: chips exposed to increasing concentrations of amino-acid, no analyte
T1 sequence (C0HL13 26-4652): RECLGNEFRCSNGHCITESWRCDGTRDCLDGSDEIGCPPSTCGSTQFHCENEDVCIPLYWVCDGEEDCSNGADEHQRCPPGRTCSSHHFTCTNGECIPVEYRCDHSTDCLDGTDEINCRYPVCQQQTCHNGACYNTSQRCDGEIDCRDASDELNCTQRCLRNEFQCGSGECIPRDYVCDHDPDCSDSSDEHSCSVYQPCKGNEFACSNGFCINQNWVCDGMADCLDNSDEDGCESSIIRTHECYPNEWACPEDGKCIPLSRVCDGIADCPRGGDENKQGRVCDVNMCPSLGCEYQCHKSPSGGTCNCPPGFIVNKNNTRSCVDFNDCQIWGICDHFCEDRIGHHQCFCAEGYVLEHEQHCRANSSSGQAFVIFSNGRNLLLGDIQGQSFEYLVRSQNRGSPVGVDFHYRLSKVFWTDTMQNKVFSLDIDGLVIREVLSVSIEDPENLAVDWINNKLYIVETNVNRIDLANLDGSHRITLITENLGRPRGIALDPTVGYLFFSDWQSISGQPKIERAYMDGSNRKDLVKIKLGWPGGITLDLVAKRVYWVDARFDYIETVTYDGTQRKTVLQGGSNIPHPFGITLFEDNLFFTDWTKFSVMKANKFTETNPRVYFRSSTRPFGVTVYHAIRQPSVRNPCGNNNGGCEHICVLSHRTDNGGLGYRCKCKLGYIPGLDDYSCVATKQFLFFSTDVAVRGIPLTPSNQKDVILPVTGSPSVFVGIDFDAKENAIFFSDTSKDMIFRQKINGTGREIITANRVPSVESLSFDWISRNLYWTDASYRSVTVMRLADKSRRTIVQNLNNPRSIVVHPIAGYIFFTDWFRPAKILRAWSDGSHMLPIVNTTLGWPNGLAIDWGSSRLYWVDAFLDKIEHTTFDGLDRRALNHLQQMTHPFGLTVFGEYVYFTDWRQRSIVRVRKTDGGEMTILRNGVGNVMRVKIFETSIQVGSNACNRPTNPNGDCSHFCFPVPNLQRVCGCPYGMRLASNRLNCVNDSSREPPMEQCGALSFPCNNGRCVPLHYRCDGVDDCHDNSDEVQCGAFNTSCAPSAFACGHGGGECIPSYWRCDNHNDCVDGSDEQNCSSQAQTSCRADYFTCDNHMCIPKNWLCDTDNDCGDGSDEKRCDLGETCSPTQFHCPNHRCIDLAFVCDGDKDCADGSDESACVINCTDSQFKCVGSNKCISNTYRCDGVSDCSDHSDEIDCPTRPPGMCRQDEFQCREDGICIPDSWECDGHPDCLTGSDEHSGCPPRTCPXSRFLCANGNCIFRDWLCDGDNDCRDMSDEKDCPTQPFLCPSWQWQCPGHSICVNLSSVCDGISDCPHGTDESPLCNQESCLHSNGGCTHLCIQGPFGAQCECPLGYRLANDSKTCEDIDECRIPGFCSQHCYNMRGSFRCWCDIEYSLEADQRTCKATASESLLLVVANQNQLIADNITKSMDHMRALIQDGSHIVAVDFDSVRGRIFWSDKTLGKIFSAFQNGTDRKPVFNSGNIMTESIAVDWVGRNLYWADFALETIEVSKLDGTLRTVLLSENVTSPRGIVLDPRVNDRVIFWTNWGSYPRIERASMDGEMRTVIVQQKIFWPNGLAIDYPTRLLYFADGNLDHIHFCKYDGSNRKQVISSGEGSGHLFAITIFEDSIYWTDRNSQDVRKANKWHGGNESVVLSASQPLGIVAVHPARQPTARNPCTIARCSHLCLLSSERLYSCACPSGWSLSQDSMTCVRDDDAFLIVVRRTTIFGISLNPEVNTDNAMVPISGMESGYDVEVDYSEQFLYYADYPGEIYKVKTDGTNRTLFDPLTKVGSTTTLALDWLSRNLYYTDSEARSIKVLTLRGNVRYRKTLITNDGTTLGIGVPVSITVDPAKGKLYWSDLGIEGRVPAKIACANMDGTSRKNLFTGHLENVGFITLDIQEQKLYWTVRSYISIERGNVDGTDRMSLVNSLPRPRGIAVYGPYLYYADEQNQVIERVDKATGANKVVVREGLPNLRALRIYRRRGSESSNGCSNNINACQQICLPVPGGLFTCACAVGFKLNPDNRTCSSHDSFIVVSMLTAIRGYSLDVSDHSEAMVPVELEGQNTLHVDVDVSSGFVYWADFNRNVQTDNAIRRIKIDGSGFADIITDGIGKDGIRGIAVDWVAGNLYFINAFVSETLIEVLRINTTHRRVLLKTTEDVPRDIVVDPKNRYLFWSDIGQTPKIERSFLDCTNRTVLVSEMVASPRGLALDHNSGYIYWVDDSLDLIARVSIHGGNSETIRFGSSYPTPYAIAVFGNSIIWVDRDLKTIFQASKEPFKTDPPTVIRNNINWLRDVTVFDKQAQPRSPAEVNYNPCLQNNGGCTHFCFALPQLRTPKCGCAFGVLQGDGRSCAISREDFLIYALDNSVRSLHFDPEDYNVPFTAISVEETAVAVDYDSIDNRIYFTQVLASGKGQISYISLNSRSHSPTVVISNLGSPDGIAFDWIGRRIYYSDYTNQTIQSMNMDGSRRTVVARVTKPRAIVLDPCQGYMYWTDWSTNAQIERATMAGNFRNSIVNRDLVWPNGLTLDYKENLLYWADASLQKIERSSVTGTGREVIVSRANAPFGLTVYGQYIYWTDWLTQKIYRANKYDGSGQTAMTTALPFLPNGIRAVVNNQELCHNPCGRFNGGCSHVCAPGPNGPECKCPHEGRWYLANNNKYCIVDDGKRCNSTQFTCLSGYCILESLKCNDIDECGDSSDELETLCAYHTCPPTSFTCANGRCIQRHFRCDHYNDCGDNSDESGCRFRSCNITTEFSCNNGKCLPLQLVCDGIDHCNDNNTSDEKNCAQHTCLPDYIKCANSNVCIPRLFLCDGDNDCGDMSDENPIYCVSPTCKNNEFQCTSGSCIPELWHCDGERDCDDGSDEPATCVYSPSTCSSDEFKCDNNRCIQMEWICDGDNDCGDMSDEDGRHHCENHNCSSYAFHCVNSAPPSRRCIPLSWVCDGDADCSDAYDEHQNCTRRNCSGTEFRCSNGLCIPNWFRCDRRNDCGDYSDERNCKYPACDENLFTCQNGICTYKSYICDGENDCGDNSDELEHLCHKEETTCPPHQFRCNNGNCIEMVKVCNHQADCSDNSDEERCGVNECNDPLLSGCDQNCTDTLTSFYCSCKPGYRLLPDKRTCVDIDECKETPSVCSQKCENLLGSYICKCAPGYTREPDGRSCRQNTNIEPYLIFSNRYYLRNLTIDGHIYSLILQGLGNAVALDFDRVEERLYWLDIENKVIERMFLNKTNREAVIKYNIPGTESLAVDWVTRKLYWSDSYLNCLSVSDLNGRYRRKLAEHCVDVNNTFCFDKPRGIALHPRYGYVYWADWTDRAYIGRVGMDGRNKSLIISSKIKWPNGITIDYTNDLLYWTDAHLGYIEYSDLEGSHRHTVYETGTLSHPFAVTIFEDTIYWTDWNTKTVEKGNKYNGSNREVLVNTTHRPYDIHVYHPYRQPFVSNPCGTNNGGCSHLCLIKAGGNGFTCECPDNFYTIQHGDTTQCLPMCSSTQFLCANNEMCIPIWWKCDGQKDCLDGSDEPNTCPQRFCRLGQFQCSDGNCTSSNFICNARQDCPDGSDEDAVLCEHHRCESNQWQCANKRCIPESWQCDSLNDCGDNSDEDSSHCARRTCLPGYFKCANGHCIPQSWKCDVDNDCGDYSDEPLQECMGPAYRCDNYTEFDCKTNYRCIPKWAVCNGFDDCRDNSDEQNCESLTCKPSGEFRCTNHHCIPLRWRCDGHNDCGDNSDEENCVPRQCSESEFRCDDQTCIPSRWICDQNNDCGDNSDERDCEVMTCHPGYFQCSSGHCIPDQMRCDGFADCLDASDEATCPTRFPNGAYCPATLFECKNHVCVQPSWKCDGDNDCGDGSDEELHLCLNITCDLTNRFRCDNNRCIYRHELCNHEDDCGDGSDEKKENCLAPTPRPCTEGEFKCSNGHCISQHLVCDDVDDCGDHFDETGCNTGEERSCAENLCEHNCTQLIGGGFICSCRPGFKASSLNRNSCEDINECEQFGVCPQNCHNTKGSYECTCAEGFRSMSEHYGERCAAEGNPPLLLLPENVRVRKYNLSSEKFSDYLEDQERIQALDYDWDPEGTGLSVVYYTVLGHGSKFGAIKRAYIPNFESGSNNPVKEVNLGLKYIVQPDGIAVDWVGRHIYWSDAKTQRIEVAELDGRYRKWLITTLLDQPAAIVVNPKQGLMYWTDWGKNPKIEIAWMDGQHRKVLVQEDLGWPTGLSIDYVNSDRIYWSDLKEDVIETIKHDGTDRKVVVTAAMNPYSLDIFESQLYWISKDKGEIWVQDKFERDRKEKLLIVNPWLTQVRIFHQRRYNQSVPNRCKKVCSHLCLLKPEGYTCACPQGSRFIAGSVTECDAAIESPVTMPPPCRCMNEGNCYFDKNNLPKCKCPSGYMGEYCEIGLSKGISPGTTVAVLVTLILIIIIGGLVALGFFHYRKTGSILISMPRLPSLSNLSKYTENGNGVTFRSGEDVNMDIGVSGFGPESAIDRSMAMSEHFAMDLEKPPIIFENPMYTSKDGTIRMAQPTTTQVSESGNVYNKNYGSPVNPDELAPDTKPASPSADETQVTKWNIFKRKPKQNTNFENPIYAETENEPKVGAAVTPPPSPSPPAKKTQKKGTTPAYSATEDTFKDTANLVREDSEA
Description: (§1) To directly address whether supra-physiological concentrations of dibasic amino-acids (dAAs) can interfere with binding of protein ligands to megalin, we used surface plasmon resonance. Sensor chips were derivatized with porcine megalin at high density. […] After flushing, chips were incubated with 10 µg/ml of three analytes: the megalin chaperone, RAP (receptor-associated protein), as positive control (not shown), or two physiological megalin ligands: transcobalamine:cobalamine complexes (TC:B12; Fig. 1; sensorgrams shown at Supplemental Fig. 1a) or lysozyme (Supplemental Fig. 1b), diluted in 0 to 100 mM of the same amino-acids in buffer. […] The supraphysiological range for effective competition in vitro defined the necessary increment in urinary concentration from dietary supplementation for significant competition in vivo.
Figure 1 Acellular assay: direct competition for transcobalamine:cobalamine binding to megalin immobilized on Biacore sensor chips. Signals of sensorgrams (shown in Supplemental Fig. 1) were normalized to control signal without AA supplementation, taken as the unity, and are means ± SEM of at least four independent technical duplicate values at each of the indicated amino-acid-concentrations.
(§2) Surface plasmon resonance (SPR) analysis of the binding to chip-immobilized megalin of receptor-associated protein (RAP), transcobalamine:cobalamine complex (TC:B12) and lysozyme was carried out using a Biacore T200 instrument (Uppsala, Sweden). The sensor chips (type CM5) were activated with a 1:1 mixture of 0.2 M N-ethyl-N′-(3-dimethylaminopropyl) carbodiimide and 0.05 M N-hydroxysuccinimide in H2O. Porcine megalin[49] was immobilized on the chip in 10 mM sodium acetate, pH 4.0, and the remaining binding sites were blocked with 1 M ethanolamine, pH 8.5. The SPR signal generated from immobilized megalin were obtained with a density of 4.5 fmol protein/mm^2.
(§3) Human RAP was produced as recombinant protein in E. coli[50] and used to validate the sensor chip. TC was purified and complexed with B12 as described (TC/B12)[50],[51]. Human recombinant lysozyme was purchased from Sigma-Aldrich (expressed in rice, # L1667). Sensorgrams were generated using each of these three ligands at 10 µg/ml in a running buffer consisting of 10 mM Hepes, 150 mM NaCl, 4 mM CaCl2 and 0.05% Tween 20, pH 7.4. The flow cells were regenerated with 1 M ethanolamine pH 9.0. Analyte testing was performed as a dual injection starting with running buffer supplemented with the defined concentrations of amino acids followed by injection of analyte in the same solution. The pH of all buffers was adjusted after amino acids addition. All binding experiments were made as at least independent triplicate of technical duplicates and data were analyzed using the Biacore T200 evaluation software version 3.1.

[2] = target: T1, porcine megalin; assay: Surface plasmon resonance: competition for lysozyme binding to chip-immobilized megalin; conditions: 10 µg/ml lysozyme in 0 to 100 mM amino-acid
Description: as §1, §2, §3

[3] = tested on: kidney proximal tubular cells; assay: Triple fluorescence of lysosomes and endogenous albumin in PTCs of Ctns KO mice (2-to-6 months diet); format: in vivo; conditions: Ctns KO female mice, diet from 2-to-6 months-of-age
Description: For in vivo endocytic tracing in PTCs, Texas Red-ovalbumin (300 µg, Invitrogen #O23021) was injected intravenously at 20 min before sacrifice. For immunofluorescence, antigen retrieval was promoted in citrate buffer, pH 6, at 95 °C for 20 min using a Lab Vision Pretreatment Module™ (Thermo Scientific). Tissue was permeabilized with PBS/0.3% Triton-X100 for 5 min, then for one further hour with 10% bovine serum albumin (BSA)/3% milk to block non-specific sites. Sections were incubated overnight at 4 °C with the following primary reagents in blocking buffer: sheep anti-megalin (1/800, kindly provided by Drs P. Verroust and R. Kozyraki, INSERM U968, Paris, F-75012, FR), rat anti-LAMP-1 (1/100; #1D4B, Hybridoma Bank), mouse anti-ezrin (1/100, #MS-661-P1, ThermoScientific), mouse anti-Ki67 (1/250, #556003, BD-Pharmingen), rabbit anti-human albumin (1/1000; Dako #A0001). After washing, sections were further incubated with the appropriate AlexaFluor-secondary antibodies for 1 h at room temperature in 10% BSA/0.3% Triton-X100 and mounted with Faramount aqueous mounting medium (Dako). Sections were imaged on a spinning disk confocal microscope using EC Plan-NeoFluar 40X/1.3 or 100x/1.4 Oil DIC objective (Cell Observer Spinning Disk; Zeiss). Proliferative events in kidney cortex were quantified as described. Alternatively, whole kidney images were acquired using a Pannoramic 250 Flash III microscope (3DHistech). Histological PAS staining and quantification of the frequency of swan-neck lesions were performed as described. Sirius Red staining of paraffine sections and morphometry in total sagittal kidney sections after conversion to red fluorescence were performed as described[53],[54]. […]
Supplemental Figure 3. […]
not detected within PT lysosomes of dAA-treated mice under identical immunolabeling /imaging conditions, indicating impaired endocytosis and/or […] degradation upon dbAA supplementation. […]

[4] = tested on: cystinotic rat model; assay: 5x-L-lysine diet in cystinotic rat model (preliminary, not shown); format: in vivo; conditions: preliminary results (not shown)
[5] = tested on: kidney tubular reabsorption of LMWPs; parameters: method as in PMID 98829; conditions: humans, intravenous injection; cited from earlier work
[6] = tested on: megalin and cubilin; parameters: method as in PMID 16508656; conditions: rats, cited from earlier work

With `NCCCC[C@H](N)C(=O)O` [5x-L-lysine, L-lysine] the IC50 [1] was 25 mM, the “SPR signal of amino-acid alone on megalin chip” value [1] was “no signal was detected” and the “effect on megalin binding of lysozyme” value [2] was “concentration-dependent decrease”. The “endogenous albumin signal in PTC lysosomes” value [3] was “disappearance of albumin signal”, the “lysosomal enlargement/deformation in PTCs” value [3] was “prevent lysosomal enlargement and distorsion” and the Fanconi syndrome [4] was “serious worsening”. The kidney cystine accumulation [4] was “considerably decreased”, the “impact on glomerular filtration” value [5] was “no impact” and the “inhibition of kidney tubular reabsorption of LMWPs” value [5] was “dose-dependent (up to complete) inhibition”. The tolerance ([6]; 1-day gavage, 80 mmoles/kg) was “well tolerated”, the LMWPuria ([6]; gavage for one day) was “prominent LMWPuria” and the “localization of megalin and cubilin in PTCs” value ([6]; gavage for one day, from base of brush border to brush border itself) was “striking relocation”.

In the case of `N=C(N)NCCC[C@H](N)C(=O)O` [5x-L-arginine, L-arginine], the IC50 [1] is reported as 57 mM, the “SPR signal of amino-acid alone on megalin chip” value [1] is reported as “no signal was detected” and the “effect on megalin binding of lysozyme” value [2] is reported as “concentration-dependent decrease”. The “lysosomal enlargement/deformation in PTCs” value [3] was “prevent lysosomal enlargement and distorsion”.
